Ten compounds from ChEMBL document CHEMBL2074021, “Nuclear receptor response elements mediate induction of intestinal MDR1 by rifampin” (J Biol Chem, 2001) can be followed below.

This data set deals with ATP-dependent translocase ABCB1 (Homo sapiens, UniProt P08183). The data set is described as follows: TP_TRANSPORTER: Northern blot from LS174T cell. Type of data set: functional, cell-based.
Chain of ATP-dependent translocase ABCB1 (P08183 whole entry): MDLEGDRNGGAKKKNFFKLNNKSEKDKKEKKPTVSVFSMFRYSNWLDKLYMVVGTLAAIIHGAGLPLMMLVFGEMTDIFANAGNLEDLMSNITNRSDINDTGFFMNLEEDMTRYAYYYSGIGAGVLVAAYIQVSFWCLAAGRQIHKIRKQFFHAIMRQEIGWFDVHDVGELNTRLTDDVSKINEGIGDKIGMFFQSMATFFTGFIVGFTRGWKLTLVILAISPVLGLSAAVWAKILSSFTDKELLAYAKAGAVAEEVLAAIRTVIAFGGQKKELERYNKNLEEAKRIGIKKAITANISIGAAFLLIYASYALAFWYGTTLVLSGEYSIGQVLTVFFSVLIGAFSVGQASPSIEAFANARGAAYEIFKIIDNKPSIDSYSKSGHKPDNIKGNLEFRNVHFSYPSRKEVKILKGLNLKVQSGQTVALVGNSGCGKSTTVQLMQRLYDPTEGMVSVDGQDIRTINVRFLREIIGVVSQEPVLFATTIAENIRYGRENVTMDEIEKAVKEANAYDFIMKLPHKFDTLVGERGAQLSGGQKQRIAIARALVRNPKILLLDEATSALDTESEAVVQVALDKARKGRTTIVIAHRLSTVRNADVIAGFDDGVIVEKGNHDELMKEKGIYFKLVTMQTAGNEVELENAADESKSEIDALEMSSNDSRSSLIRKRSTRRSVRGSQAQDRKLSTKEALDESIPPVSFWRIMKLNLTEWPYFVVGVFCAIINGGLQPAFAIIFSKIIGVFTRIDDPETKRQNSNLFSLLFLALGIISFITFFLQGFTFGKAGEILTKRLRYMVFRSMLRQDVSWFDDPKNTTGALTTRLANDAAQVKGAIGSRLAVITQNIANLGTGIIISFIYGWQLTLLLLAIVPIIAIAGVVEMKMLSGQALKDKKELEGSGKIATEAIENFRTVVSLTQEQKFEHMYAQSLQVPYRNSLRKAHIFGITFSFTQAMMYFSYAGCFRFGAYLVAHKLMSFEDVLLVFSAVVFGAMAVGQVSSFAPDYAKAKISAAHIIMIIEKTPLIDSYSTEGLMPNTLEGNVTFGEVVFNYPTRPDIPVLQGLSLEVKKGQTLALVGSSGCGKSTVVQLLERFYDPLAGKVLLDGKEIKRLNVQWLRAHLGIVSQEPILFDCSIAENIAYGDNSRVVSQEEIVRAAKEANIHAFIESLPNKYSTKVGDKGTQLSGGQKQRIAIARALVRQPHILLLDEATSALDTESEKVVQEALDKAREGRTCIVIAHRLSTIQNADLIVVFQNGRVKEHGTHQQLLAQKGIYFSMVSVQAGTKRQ
On to `CC(=O)[C@H]1CC[C@H]2[C@@H]3CC[C@@H]4CC(=O)CC[C@]4(C)[C@H]3CC[C@]12C`, for which the Activity entry was “inducer [+]”. As for `NC(=O)N1c2ccccc2C=Cc2ccccc21` [CARBAMAZEPINE], the entry is “inducer [+]”; as for `Clc1ccccc1C(c1ccccc1)(c1ccccc1)n1ccnc1` [CLOTRIMAZOLE], “inducer [+]”; as for `C[C@]12C[C@H](O)[C@H]3[C@@H](CCC4=CC(=O)CC[C@@]43C)[C@@H]1CC[C@@H]2C(=O)CO` [CORTICOSTERONE], “inducer [+]”.

As for `C[C@@H]1C[C@H]2[C@@H]3CCC4=CC(=O)C=C[C@]4(C)[C@@]3(F)[C@@H](O)C[C@]2(C)[C@@]1(O)C(=O)CO` [DEXAMETHASONE], the Activity result is “inducer [+]”. As for `CC#C[C@]1(O)CC[C@H]2[C@@H]3CCC4=CC(=O)CCC4=C3[C@@H](c3ccc(N(C)C)cc3)C[C@@]21C` [MIFEPRISTONE], the entry is “inducer [+]”; as for `COC(=O)C1=C(C)NC(C)=C(C(=O)OC)C1c1ccccc1[N+](=O)[O-]` [NIFEDIPINE], “inducer [+]”. As for `CC(=O)[C@H]1[C@H](C#N)C[C@H]2[C@@H]3CC=C4C[C@@H](O)CC[C@]4(C)[C@H]3CC[C@@]21C` [PREGNENOLONE CARBONITRILE], the entry is “inducer [+]”; as for `COC(=O)[C@H]1[C@H]2C[C@@H]3c4[nH]c5cc(OC)ccc5c4CCN3C[C@H]2C[C@@H](OC(=O)c2cc(OC)c(OC)c(OC)c2)[C@@H]1OC` [RESERPINE], “inducer [+]”; as for `CO[C@H]1/C=C/O[C@@]2(C)Oc3c(C)c(O)c4c(O)c(c(/C=N/N5CCN(C)CC5)c(O)c4c3C2=O)NC(=O)/C(C)=C\C=C\[C@H](C)[C@H](O)[C@@H](C)[C@@H](O)[C@@H](C)[C@H](OC(C)=O)[C@@H]1C` [RIFAMPIN], “inducer [+]”.
